Where a name gives a salt, the structure may show the parent alone.
What was measured:
[1] = Brain biodistribution study (LC-MS); conditions: C57BL/6, mouse
Description: (§1) The C57BL/6 mouse cerebral malaria model was established according to the method of “In vivo antimalarial experiment”. The model mice were randomly divided into the intranasal administration group (na-ATS/TMP@lipoBX) and tail vein injection group (iv-ATS/TMP@lipoBX). The dosage of each administration group was artesunate (ATS) 15.6 mg/kg and tetramethylpyrazine hydrochloride (TMP) 20.8 mg/kg.
Mice were euthanized and the brains were dissected. The brain samples were homogenized by adding 4 times their weight of physiological saline to prepare a tissue homogenate. The brain homogenates were processed according to the processing method for the plasma sample, and LC–MS quantitative analysis was carried out.
(§2) LC conditions were as follows: column: Waters UPLC BEH C18 column (1.7 μm, 2.1 mm × 50 mm); mobile phase: water (0.1% formic acid and 5 mM ammonium formate)-acetonitrile (85:15, v/v), flow rate: 0.3 ml/min; column temperature: 35 ℃. Mass spectrum conditions were as follows: electric spray ion source (ESI); multiple response monitoring (MRM) mode; positive ion scanning mode; air curtain pressure (N2) was 40 psi, impact air pressure (N2) was 9 psi, atomization gas pressure (N2) was 55 psi, auxiliary gas pressure (N2) was 55 psi; spray voltage was 5500 V; atomization temperature was 550 ℃.

[2] = Pharmacokinetic study in plasma (LC-MS); conditions: C57BL/6, mouse
Description: as §1
Blood samples were collected at 5 min, 10 min, 15 min, 30 min, 45 min, 1 h, 2 h, 4 h, 8 h, 12 h and 24 h after administration. These samples were immediately placed in a tube containing heparin sodium (1000 U/mL). Plasma samples were obtained after centrifugation at 4000 rpm for 10 min and an esterase inhibitor was added to the samples. Subsequently, methanol was added to the plasma in the ratio of 1:2 (plasma-methanol) and centrifuged at 14,000 rpm for 5 min to obtain liquid supernatant for quantitative analysis by LC–MS.
as §2

[3] = Solubility of the conjugate (description); format: physicochemical

Structure (SMILES)	Tmax ([1]; brain, inhaled or intranasal) [min]	Tmax ([1]; brain, iv) [min]	bioavailability ([1]; brain, other: intranasal) [%]	bioavailability ([2]; in vivo) [%]	other results
C[C@H]1[C@H](OC(=O)CCC(=O)O)O[C@@H]2O[C@@]3(C)CC[C@H]4[C@H](C)CC[C@@H]1[C@@]24OO3 [ATS, artesunate]	210 ± 60	495 ± 311	~415	~91	Tmax ([2]; plasma, inhaled or intranasal): 144 ± 225 min; Tmax ([2]; plasma, iv): 17.5 ± 18.5 min
C[C@H]1[C@@H](O)O[C@@H]2O[C@@]3(C)CC[C@H]4[C@H](C)CC[C@@H]1[C@@]24OO3 [DHA, dihydroartemisinin]	23.8 ± 17	7.5 ± 2.88	~449	–	–
Cc1nc(C)c(C)nc1C [TMP, tetramethylpyrazine hydrochloride]	–	–	–	~97	bioavailability ([1]; in vivo): ~183%; Tmax ([1]; in vivo, inhaled or intranasal): 4.98 min; Tmax ([1]; in vivo, iv): 4.98 min; Tmax ([2]; in vivo, inhaled or intranasal): 4.98 min; Tmax ([2]; in vivo, iv): 6.24 ± 2.52 min
CC(C)CCCC(C)C1CCC2C3CC=C4CC(OC(=O)CCCCCCCCCCOc5ccc(OC6OC(CO)C(O)C(O)C6O)cc5)CCC4(C)C3CCC12C (stereo not shown) [cholesterol-undecanoate-glucose conjugate]	–	–	–	–	solubility [3]: soluble in ethanol and tetrahydrofuran
